Source: patent US20230301300A1, “HERBICIDAL COMPOSITIONS” (SYNGENTA CROP PROTECTION AG, priority 2020, published 2023)

Columns and labels:
Test in all cases: B2 Post-Emergence Efficacy - Test 2
Assay type in all cases: in vivo
[1] = tested on: Abutilon theophrasti (ABUTH); details: 15 days after application, 0-100 scale
Outline: (§1)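 Glasshouse post-emergence test: plants sown in standard soil, grown 12 days (24/18 °C or 20/16 °C day/night; 16 h light; 65% humidity), sprayed once with an aqueous IF50-based formulation including 0.2% v/v Genapol X080. Visual injury, 0–100, recorded 15 days post-application.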

[2] = tested on: Alopecurus myosuroides (ALOMY); details: 15 days after application, 0-100 scale
Outline: as §1

[3] = tested on: Digitaria sanguinalis (DIGSA); details: 15 days after application, 0=no damage, 100=total kill
Outline: as §1

[4] = tested on: Polygonum convolvulus (POLCO); details: 15 days after application, 0-100 scale
Outline: as §1

Row | SMILES | Herbicidal activity ABUTH ([1]; 15 g/Ha) | Herbicidal activity ABUTH ([1]; 30 g/Ha) | Herbicidal activity ABUTH ([1]; 60 g/Ha) | Herbicidal activity ABUTH ([1]; 125 g/Ha) | Herbicidal activity ABUTH ([1]; 250 g/Ha) | Herbicidal activity ABUTH ([1]; 500 g/Ha) | Herbicidal activity ALOMY ([2]; 15 g/Ha) | Herbicidal activity ALOMY ([2]; 30 g/Ha) | Herbicidal activity ALOMY ([2]; 60 g/Ha) | Herbicidal activity ALOMY ([2]; 125 g/Ha) | Herbicidal activity ALOMY ([2]; 250 g/Ha) | Herbicidal activity ALOMY ([2]; 500 g/Ha) | Herbicidal activity on a 0-100 scale, DIGSA ([3]; 15 g/Ha) | Herbicidal activity on a 0-100 scale, DIGSA ([3]; 30 g/Ha) | Herbicidal activity on a 0-100 scale, DIGSA ([3]; 60 g/Ha) | Herbicidal activity on a 0-100 scale, DIGSA ([3]; 125 g/Ha) | Herbicidal activity on a 0-100 scale, DIGSA ([3]; 250 g/Ha) | Herbicidal activity on a 0-100 scale, DIGSA ([3]; 500 g/Ha) | Herbicidal activity POLCO ([4]; 15 g/Ha) | Herbicidal activity POLCO ([4]; 60 g/Ha) | further results
1 | Cc1nn(C)c(=O)c(-c2c(F)ccc(Cl)c2CCc2ccc(C#N)cc2)c1O [Compound 1.024, 4-[3-chloro-6-fluoro-2-[2-[4-(cyano)phenyl]ethyl]phenyl]-5-hydroxy-2,6-dimethyl-pyridazin-3-one] | 90 | 90 | 100 | 100 | 100 | 100 | 10 | 30 | 50 | 70 | 70 | 70 | 0 | 20 | 40 | 80 | 90 | 90 | 80 | 90 | Herbicidal activity POLCO ([4]; 125 g/Ha): 90; Herbicidal activity POLCO ([4]; 250 g/Ha): 90; Herbicidal activity POLCO ([4]; 500 g/Ha): 100
2 | Cc1nn(C)c(=O)c(-c2c(F)ccc(Cl)c2CCc2ccc(Cl)cc2)c1OC(=O)C(C)C [Compound 1.089, [5-[3-chloro-2-[2-(4-chlorophenyl)ethyl]-6-fluoro-phenyl]-1,3-dimethyl-6-oxo-pyridazin-4-yl] 2-methylpropanoate] | 70 | 90 | 100 | 100 | 100 | 100 | 20 | 50 | 50 | 80 | 80 | 90 | 0 | 0 | 0 | 10 | 40 | 30 |  |  | 
3 | Cc1nn(C)c(=O)c(-c2c(F)ccc(Cl)c2CCc2ccccc2C(F)(F)F)c1O [Compound 1.066, 4-[3-chloro-6-fluoro-2-[2-[2-(trifluoromethyl)phenyl]ethyl]phenyl]-5-hydroxy-2,6-dimethyl-pyridazin-3-one] | 20 | 50 | 50 | 90 | 90 | 100 | 20 | 50 | 70 | 80 | 90 | 90 | 0 | 20 | 20 | 40 | 70 | 70 | 70 | 90 | Herbicidal activity POLCO ([4]; 30 g/Ha): 80; Herbicidal activity POLCO ([4]; 125 g/Ha): 90; Herbicidal activity POLCO ([4]; 250 g/Ha): 100; Herbicidal activity POLCO ([4]; 500 g/Ha): 100
4 | Cc1nn(C)c(=O)c(-c2c(F)ccc(Cl)c2CCc2ccc(F)cc2)c1O [Compound 1.048, 4-[3-chloro-6-fluoro-2-[2-(4-fluorophenyl)ethyl]phenyl]-5-hydroxy-2,6-dimethyl-pyridazin-3-one] | 60 | 80 | 90 | 90 | 90 | 100 | 20 | 30 | 70 | 80 | 80 | 90 | 0 | 10 | 20 | 20 | 50 | 70 | 60 | 90 | Herbicidal activity POLCO ([4]; 30 g/Ha): 70; Herbicidal activity POLCO ([4]; 125 g/Ha): 90; Herbicidal activity POLCO ([4]; 250 g/Ha): 90; Herbicidal activity POLCO ([4]; 500 g/Ha): 90
5 | Cc1nn(C)c(=O)c(-c2c(F)ccc(Cl)c2CCc2ccc(C(F)(F)F)nc2)c1O [Compound 1.042, 4-[3-chloro-6-fluoro-2-[2-[6-(trifluoromethyl)-3-pyridyl]ethyl]phenyl]-5-hydroxy-2,6-dimethyl-pyridazin-3-one] | 80 | 90 | 100 | 100 | 100 | 100 | 20 | 60 | 80 | 80 | 90 | 90 | 0 | 60 | 70 | 70 | 80 | 90 | 80 | 90 | Herbicidal activity POLCO ([4]; 30 g/Ha): 80; Herbicidal activity POLCO ([4]; 125 g/Ha): 90; Herbicidal activity POLCO ([4]; 250 g/Ha): 90; Herbicidal activity POLCO ([4]; 500 g/Ha): 100
6 | Cc1nn(C)c(=O)c(-c2c(F)ccc(Cl)c2CCc2ccc(F)cc2)c1OC(=O)C(C)C [Compound 1.125, [5-[3-chloro-6-fluoro-2-[2-(4-fluorophenyl)ethyl]phenyl]-1,3-dimethyl-6-oxo-pyridazin-4-yl] 2-methylpropanoate] | 80 | 90 | 90 | 90 | 100 | 100 | 10 | 10 | 30 | 30 | 60 | 40 | 0 | 0 | 0 | 10 | 30 | 70 | 90 | 90 | Herbicidal activity POLCO ([4]; 30 g/Ha): 90; Herbicidal activity POLCO ([4]; 125 g/Ha): 90; Herbicidal activity POLCO ([4]; 250 g/Ha): 90; Herbicidal activity POLCO ([4]; 500 g/Ha): 90
